Laboratory results taken from patent US20250230193A1, “CYCLIC COMPOUND HAVING SELECTIVE KRAS INHIBITORY EFFECT ON HRAS AND NRAS” (CHUGAI SEIYAKU KABUSHIKI KAISHA, priority 2022, published 2025).

Columns and labels:
[1] = target: GDP-bound NRAS wild-type protein (Homo sapiens, UniProt P01111); assay: Binding to NRAS by surface plasmon resonance (SPR), Single Cycle Kinetics; settings: SPR, GDP-bound NRAS wild-type vs GDP-bound KRAS wild-type
[2] = target: GDP-bound HRAS wild-type protein (Homo sapiens, UniProt P01112); assay: Binding to HRAS by surface plasmon resonance (SPR), Single Cycle Kinetics; settings: SPR, GDP-bound HRAS wild-type vs GDP-bound KRAS wild-type
Sequence of GDP-bound HRAS wild-type protein (P01112 whole entry): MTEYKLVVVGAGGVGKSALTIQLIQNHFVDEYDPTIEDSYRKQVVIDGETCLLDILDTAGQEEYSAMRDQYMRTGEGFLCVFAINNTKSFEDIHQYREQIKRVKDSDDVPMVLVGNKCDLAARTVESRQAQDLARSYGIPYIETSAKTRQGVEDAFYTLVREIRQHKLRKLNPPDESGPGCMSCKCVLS

Sequence of GDP-bound NRAS wild-type protein (P01111 whole entry): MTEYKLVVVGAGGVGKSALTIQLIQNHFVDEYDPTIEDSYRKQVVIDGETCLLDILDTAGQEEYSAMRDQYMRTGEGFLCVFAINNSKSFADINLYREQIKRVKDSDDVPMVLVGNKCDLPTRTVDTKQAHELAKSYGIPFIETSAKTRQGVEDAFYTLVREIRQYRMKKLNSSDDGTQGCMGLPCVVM

| SMILES | NRAS/KRAS (ratio of KD value with respect to NRAS to KD value with respect to KRAS) [1] | HRAS/KRAS (ratio of KD value with respect to HRAS to KD value with respect to KRAS) [2] |
| --- | --- | --- |
| CCCOC[C@H]1C(=O)N[C@@H]([C@@H](C)CC)C(=O)N2CCC[C@H]2C(=O)N(C)[C@H]2C/C=C\CCN(C2=O)[C@@H](Cc2ccc(C)cc2)C(=O)N(C)CC(=O)N[C@@H](CCc2ccc(C(F)(F)F)c(OC)c2)C(=O)N2C[C@@H](C)C[C@H]2C(=O)NC2(CC(C)(C)C2)C(=O)N(C)[C@@H](C2CCCC2)C(=O)N(C)[C@H](C(=O)N(C)CC)CC(=O)N1C [PP2429] | A (a compound having 10 or more and less than 20 is denoted as A) | B (a compound having 3 or more and less than 10 is denoted as B) |
| CCCOC[C@H]1C(=O)N[C@@H]([C@@H](C)CC)C(=O)N2CCC[C@H]2C(=O)N(C)[C@H]2C/C=C\CCN(C2=O)[C@@H](Cc2ccc(C)cc2)C(=O)N(C)CC(=O)N[C@@H](CCc2cc(F)c(C(F)(F)F)c(F)c2)C(=O)N2C[C@H](C)C[C@H]2C(=O)NC2(CC(C)(C)C2)C(=O)N(C)[C@@H](C2CCCC2)C(=O)N(C)[C@H](C(=O)N(C)CC)CC(=O)N1C [PP2430] | AA (a compound having 20 or more is denoted as AA) | A (a compound having 10 or more and less than 20 is denoted as A) |
| CCCOC[C@H]1C(=O)N[C@@H]([C@@H](C)OCC)C(=O)N2CCC[C@H]2C(=O)N(C)[C@H]2C/C=C\CCN(C2=O)[C@@H](Cc2ccc(C)cc2)C(=O)N(C)CC(=O)N[C@@H](CCc2ccc(C(F)(F)F)c(OC)c2)C(=O)N2C[C@@H](C)C[C@H]2C(=O)NC2(CC(C)(C)C2)C(=O)N(C)[C@@H](C2CCCC2)C(=O)N(C)[C@H](C(=O)N(C)CC)CC(=O)N1C [PP2431] | A (a compound having 10 or more and less than 20 is denoted as A) | A (a compound having 10 or more and less than 20 is denoted as A) |
| CCCOC[C@H]1C(=O)N[C@@H]([C@@H](C)OCC)C(=O)N2CCC[C@H]2C(=O)N(C)[C@H]2C/C=C\CCN(C2=O)[C@@H](Cc2ccc(C)cc2)C(=O)N(C)CC(=O)N[C@@H](CCc2cc(F)c(C(F)(F)F)c(F)c2)C(=O)N2C[C@H](OCC)C[C@H]2C(=O)NC2(CC(C)(C)C2)C(=O)N(C)[C@@H](C2CCCC2)C(=O)N(C)[C@H](C(=O)N(C)CC)CC(=O)N1C [PP2432] | A (a compound having 10 or more and less than 20 is denoted as A) | A (a compound having 10 or more and less than 20 is denoted as A) |
| CCOC[C@H]1C(=O)N[C@@H]([C@@H](C)OCC)C(=O)N2CCC[C@H]2C(=O)N(C)[C@H]2C/C=C\CCN(C2=O)[C@@H](Cc2ccc(C)cc2)C(=O)N(C)CC(=O)N[C@@H](CCc2ccc(C(F)(F)F)c(OC)c2)C(=O)N2C[C@@H](C)C[C@H]2C(=O)NC2(CC(C)(C)C2)C(=O)N(C)[C@@H](C2CCCC2)C(=O)N(C)[C@H](C(=O)N(C)CC)CC(=O)N1C [PP2433] | AA (a compound having 20 or more is denoted as AA) | A (a compound having 10 or more and less than 20 is denoted as A) |
| CCCO[C@H](C)[C@@H]1NC(=O)[C@H](COCC)N(C)C(=O)C[C@@H](C(=O)N(C)CC)N(C)C(=O)[C@H](C2CCCC2)N(C)C(=O)C2(CC(C)(C)C2)NC(=O)[C@@H]2C[C@@H](OCC)CN2C(=O)[C@H](CCc2cc(F)c(C(F)(F)F)c(F)c2)NC(=O)CN(C)C(=O)[C@H](Cc2ccc(C)cc2)N2CC/C=C\C[C@@H](C2=O)N(C)C(=O)[C@@H]2CCCN2C1=O [PP2436] | A (a compound having 10 or more and less than 20 is denoted as A) | A (a compound having 10 or more and less than 20 is denoted as A) |
| CC[C@H](C)[C@@H]1NC(=O)[C@H](COC)N(C)C(=O)C[C@@H](C(=O)N(C)CC)N(C)C(=O)[C@H](C2CCCC2)N(C)C(=O)C2(CC(C)(C)C2)NC(=O)[C@@H]2C[C@H](C)CN2C(=O)[C@H](CCc2cc(F)c(C(F)(F)F)c(F)c2)NC(=O)CN(C)C(=O)[C@H](Cc2ccc(C)cc2)N2CC/C=C\C[C@@H](C2=O)N(C)C(=O)CN(C)C1=O [PP2437] | A (a compound having 10 or more and less than 20 is denoted as A) | A (a compound having 10 or more and less than 20 is denoted as A) |
| CCO[C@@H]1C[C@H]2C(=O)NC3(CC(C)(C)C3)C(=O)N(C)[C@@H](C(CC)CC)C(=O)N(C)[C@H](C(=O)N(C)C)CC(=O)N(C)[C@@H](COC)C(=O)N[C@@H]([C@@H](C)CC)C(=O)N(C)CC(=O)N(C)[C@H]3C/C=C\CCN(C3=O)[C@@H](CC3CCC(F)(F)CC3)C(=O)N(C)CC(=O)N[C@@H](CCc3ccc(C(F)(F)F)c(OC)c3)C(=O)N2C1 [PP2438] | A (a compound having 10 or more and less than 20 is denoted as A) | A (a compound having 10 or more and less than 20 is denoted as A) |
| CCOC[C@H]1C(=O)N[C@@H]([C@@H](C)CC)C(=O)N(C)CC(=O)N(C)[C@H]2C/C=C\CCN(C2=O)[C@@H](Cc2ccc(C)cc2)C(=O)N(C)CC(=O)N[C@@H](CCc2cc(F)c(C(F)(F)F)c(F)c2)C(=O)N2C[C@@H](C)C[C@H]2C(=O)NC2(CC(C)(C)C2)C(=O)N(C)[C@@H](C2CCCC2)C(=O)N(C)[C@H](C(=O)N(C)C)CC(=O)N1C [PP2439] | A (a compound having 10 or more and less than 20 is denoted as A) | A (a compound having 10 or more and less than 20 is denoted as A) |
| CCO[C@@H]1C[C@H]2C(=O)NC3(CC(C)(C)C3)C(=O)N(C)[C@@H](C(CC)CC)C(=O)N(C)[C@H](C(=O)N(C)C)CC(=O)N(C)[C@@H](COC)C(=O)N[C@@H]([C@@H](C)CC)C(=O)N(C)CC(=O)N(C)[C@H]3C/C=C\CCN(C3=O)[C@@H](CC3CCC(F)(F)CC3)C(=O)N(C)CC(=O)N[C@@H](CCc3cc(F)c(C(F)(F)F)c(F)c3)C(=O)N2C1 [PP2440] | A (a compound having 10 or more and less than 20 is denoted as A) | A (a compound having 10 or more and less than 20 is denoted as A) |
| CC[C@H](C)[C@@H]1NC(=O)[C@H](COC)N(C)C(=O)C[C@@H](C(=O)N(CC)CC)N(C)C(=O)[C@H](C2CCCC2)N(C)C(=O)C2(CC(C)(C)C2)NC(=O)[C@@H]2C[C@H](C)CN2C(=O)[C@H](CCc2ccc(C(F)(F)F)c(OC)c2)NC(=O)CN(C)C(=O)[C@H](Cc2ccc(C)cc2)N2CC/C=C\C[C@@H](C2=O)N(C)C(=O)CN(C)C1=O [PP2441] | AA (a compound having 20 or more is denoted as AA) | A (a compound having 10 or more and less than 20 is denoted as A) |
| CCC(CC)[C@H]1C(=O)N(C)[C@H](C(=O)N(C)C)CC(=O)N(C)[C@@H](COC)C(=O)N[C@@H]([C@@H](C)CC)C(=O)N(C)CC(=O)N(C)[C@H]2C/C=C\CCN(C2=O)[C@@H](CC2CCC(F)(F)CC2)C(=O)N(C)CC(=O)N[C@@H](CCc2ccc(C(F)(F)F)c(OC)c2)C(=O)N2C[C@@H](C)C[C@H]2C(=O)NC2(CC(C)(C)C2)C(=O)N1C [PP2442] | A (a compound having 10 or more and less than 20 is denoted as A) | A (a compound having 10 or more and less than 20 is denoted as A) |
